Experimental findings from the OPERA property sets (Mansouri et al. 2018) are described below.

Usually melting point stands for the temperature, or range, at which the solid turns liquid. By boiling point is commonly meant the temperature of boiling at a given pressure.

Consider `O=[N+]([O-])C(CO)(CO)CO`, for which the melting point worked out at 214 °C and the ready biodegradability result is listed as “readily biodegradable”.
`CC=CC=CC(=O)OCC` came in with a boiling point of 196 °C.
`Nc1cc(-c2ccccc2)ccc1O`: the melting point worked out at 200 °C.
For `Nc1ncnc2c1ncn2[C@@H]1O[C@@H]2COP(=O)(O)O[C@H]2[C@H]1O`, the melting point was 220 °C.
Take `S=C1NCCN1`: the boiling point is 347 °C, the melting point was 203 °C and the ready biodegradability result is “not readily biodegradable”.
With `C[C@@H]1C=Cc2ccccc21`, the boiling point turned out to be 199 °C.
The compound `Nc1ncnc(Nc2ccc(Cl)cc2)n1` returned a melting point of 234 °C.
Take `CCCC(C)C`: the boiling point is 60.2 °C, the log10 vapour pressure (mmHg) came out at 2.32 and the ready biodegradability result was “readily biodegradable”.
`O=C1CCCCCCCC1`: the melting point was found to be 34 °C.
The same measure, in the same setting: then `O=C1c2cc([N+](=O)[O-])ccc2-c2ccc([N+](=O)[O-])cc21`, with 294 °C.
For `CN1CCN(C)CC1`, the boiling point was determined as 131 °C.
`CC(C)OC(=O)C(C)(C)Oc1ccc(C(=O)c2ccc(Cl)cc2)cc1` gave a melting point of 80.5 °C.
The compound `O=C(CCl)OCCOC(=O)CCl` showed a melting point of 45.5 °C.
On to `O=C1OC(=O)C2=C1CCCC2`, for which the melting point turned out to be 74 °C.
For the compound `CC1=CCCC(C)(C)C1/C=C/C(C)=C/C=C/C(C)=C/C=C/C=C(C)/C=C/C=C(C)/C=C/C1=C(C)CCCC1(C)C` (centres undefined), the melting point came to 188 °C.
The compound `CC(C)(C)C(=O)CCl` registered a boiling point of 172 °C and a melting point of -13 °C.
In turn, `O=[N+]([O-])c1ccc(N=Nc2ccc(O)cc2O)cc1` registered a melting point of 200 °C.
In the case of `CCCCCCCCCN`, the boiling point amounted to 202 °C, the log10 vapour pressure (mmHg) was -0.556 and the melting point was -1 °C.
For the compound `CC1=C(/C=C/C(C)=C/C=C/C(C)=C/C=C/C=C(C)/C=C/C=C(C)/C=C/C2=C(C)C(=O)CCC2(C)C)C(C)(C)CCC1`, the melting point was determined as 179 °C.
`c1ccc(CCCCc2ccccc2)cc1`: the boiling point was found to be 317 °C and the melting point came to 52.5 °C.
`CC(C)(CCl)C(=O)O` displayed a melting point of 41.5 °C.
`Nc1ncc2ncn(COCCO)c2n1` returned a melting point of 189 °C.
For `CC(C)OC(=O)c1cc(C(=O)OC(C)C)cc([N+](=O)[O-])c1`, the melting point was 65 °C.
`O=C(O)CCc1nc(-c2ccccc2)c(-c2ccccc2)o1` showed a melting point of 161 °C.
`Clc1ccc(Cl)c(Oc2ccccc2)c1Cl` gave a log10 vapour pressure (mmHg) of -3.55.
`COC(=O)c1ccc(Cl)c([N+](=O)[O-])c1` displayed a melting point of 83 °C.
As for `Cc1ccc(C)c(Br)c1`, the boiling point was found to be 199 °C and the melting point amounted to 9 °C.
Consider `Cc1ccc(C(=O)c2ccccc2)c(C)c1`, for which the boiling point came to 322 °C.
Take `Cl.NCc1ccccc1`: the melting point was found to be 262 °C.
Take `C=CC(=O)O`: the boiling point was determined as 141 °C, the log10 vapour pressure (mmHg) worked out at 0.599, the melting point was 13.5 °C and the ready biodegradability result is reported as “readily biodegradable”.
As for `C=C(C)c1ccccc1`, the boiling point came out at 165 °C, the log10 vapour pressure (mmHg) worked out at 0.279, the melting point was -23.2 °C and the ready biodegradability entry is “not readily biodegradable”.
On to `CCOC(=O)C(C(C)=O)C(=O)OCC`, for which the boiling point worked out at 232 °C.
`Clc1c(Cl)c(Cl)c2nccnc2c1Cl`: the melting point was determined as 190 °C.
As for `CCCCCOC=O`, the boiling point turned out to be 130 °C and the melting point is -73.5 °C.
In turn, `Brc1ccccc1Oc1ccccc1` registered a log10 Koa of 7.24.
For `CCOc1cccc(F)c1`, the boiling point was determined as 172 °C and the melting point is -27.5 °C.
As to `Nc1cccnc1`, the boiling point is 252 °C, the melting point turned out to be 64.5 °C and the ready biodegradability entry is “not readily biodegradable”.
In turn, `Oc1ccccc1C=NCCN=Cc1ccccc1O` displayed a melting point of 128 °C.
For `CCN(CC)C(=O)Nc1ccc(OCC(O)CNC(C)(C)C)c(C(C)=O)c1` (centres undefined), the melting point amounted to 111 °C.
`CCCCc1cc2ccccc2c(OCCN(C)C)n1` registered a melting point of 146 °C.
Compound `O=C(O)c1c(F)c(F)c(F)c(F)c1C(=O)O` returned a melting point of 163 °C.
Still for that read-out and setting: the figure for `N#CCCN(CCO)c1ccc(N=Nc2ccc([N+](=O)[O-])cc2Cl)cc1` is 157 °C.
`CCCC(O)(CC)CC` showed a boiling point of 160 °C.
Turning to `CCCCCCCCCCCCCC(=O)OC`, the boiling point amounted to 295 °C, the log10 vapour pressure (mmHg) was -3.31 and the melting point turned out to be 19 °C.
Regarding `Cc1cn([C@H]2CC[C@@H](CO)O2)c(=O)[nH]c1=O`, the melting point was 156 °C.
`CC1(C)OC(=O)NC1=O` showed a melting point of 76.5 °C.
Compound `FC1=C(F)C(F)(F)C1(F)F` displayed a boiling point of 5.5 °C and a melting point of -60 °C.
In the case of `CC(C)CCCC(C)CCCC(C)CCCCC(C)CCCC(C)CCCC(C)C` (centres undefined), the boiling point was found to be 350 °C, the log10 biodegradation half-life (days) came to 1.62 and the melting point was -38 °C.
For the compound `Clc1ccccc1Br`, the boiling point turned out to be 204 °C and the melting point is -12.3 °C.
On to `Nc1cc2c3ccccc3ccc2c2ccccc12`, for which the log10 Koc (L/kg) was found to be 5.21 and the melting point was determined as 210 °C.
For the compound `O=[N+]([O-])c1ccc(Oc2ccc(Cl)cc2Cl)cc1`, the log10 Koc (L/kg) was found to be 4, the melting point came to 70 °C and the ready biodegradability result is given as “not readily biodegradable”.
Consider `CCCCCCCCCCCCCCCCCCOC(C)=O`, for which the melting point stood at 34.5 °C.
`C=C(C)CC(C)(C)C` gave a boiling point of 101 °C, a log10 vapour pressure (mmHg) of 1.65 and a melting point of -93.5 °C.
`c1ccc(-n2cccc2)cc1`: the boiling point was 234 °C and the melting point turned out to be 62 °C.
The corresponding values for `CC1(C)CC1` are 20.6 °C and -109 °C.
For `O=C(O)CCC(=O)c1ccc(C2CCCCC2)c(Cl)c1`, the melting point was found to be 163 °C.
The compound `FC(F)(F)Cl` gave a boiling point of -81.4 °C, a log10 Henry constant (atm·m³/mol) of 0.14, a log10 vapour pressure (mmHg) of 4.33 and a melting point of -181 °C.
The compound `N#CC(=NO)c1ccccc1` returned a melting point of 129 °C.
